Calls of active or inactive are those of the source. The rule behind the calls is not given here.
Assays:
[1] = AUC(0 to t) in Sprague-Dawley rat at 5 mg/kg, ig measured for 24 hrs by LC-MS/MS analysis; assay type: ADME, organism-based; set-up: time 24 hrs, dose 5 mg/kg; conditions: in vivo, po
[2] = Volume of distribution at steady state in Sprague-Dawley rat at 1 mg/kg, iv measured for 24 hrs by LC-MS/MS analysis; assay type: ADME, organism-based; conditions: in vivo, read-out: Vdss
[3] = Half life in Sprague-Dawley rat at 5 mg/kg, ig measured for 24 hrs by LC-MS/MS analysis; assay type: ADME, organism-based; conditions: in vivo, po
[4] = target: T1, 5-hydroxytryptamine receptor 1F (Homo sapiens) (UniProt P30939); assay: Potency index, ratio of lasmiditan EC50 to test compound EC50 for agonist activity at 5HT1F receptor (unknown origin) expressed in HEK293 cells measured after 60 mins by Fluo-4AM dye based FLIPR assay; assay type: functional, cell-based
T1 sequence (whole entry): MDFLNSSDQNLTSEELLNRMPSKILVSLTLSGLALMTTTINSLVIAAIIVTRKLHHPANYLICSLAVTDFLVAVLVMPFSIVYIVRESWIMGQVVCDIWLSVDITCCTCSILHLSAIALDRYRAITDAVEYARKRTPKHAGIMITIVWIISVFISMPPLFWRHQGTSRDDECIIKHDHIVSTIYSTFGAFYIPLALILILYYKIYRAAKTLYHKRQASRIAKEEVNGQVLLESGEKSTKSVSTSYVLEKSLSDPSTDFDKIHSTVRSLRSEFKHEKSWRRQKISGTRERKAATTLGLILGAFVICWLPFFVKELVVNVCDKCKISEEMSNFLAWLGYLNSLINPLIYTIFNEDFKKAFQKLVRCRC

[5] = target: T2, 5-hydroxytryptamine receptor 1F (Homo sapiens, UniProt P30939); assay: Agonist activity at 5HT1F receptor (unknown origin) expressed in HEK293 cells measured after 60 mins by Fluo-4AM dye based FLIPR assay; assay type: functional, cell-based; conditions: read-out: IC50 (the source's name)
T2 sequence (P30939 whole entry): T1 sequence (whole entry)

[6] = Half life in Sprague-Dawley rat at 1 mg/kg, iv measured for 24 hrs by LC-MS/MS analysis; assay type: ADME, organism-based; conditions: in vivo
[7] = Cmax in Sprague-Dawley rat at 1 mg/kg, iv measured for 24 hrs by LC-MS/MS analysis; assay type: ADME, organism-based; set-up: route intravenous, dose 1 mg/kg, time 24 hrs; conditions: in vivo
[8] = Cmax in Sprague-Dawley rat at 5 mg/kg, ig measured for 24 hrs by LC-MS/MS analysis; assay type: ADME, organism-based; set-up: route intragastric, time 24 hrs, dose 5 mg/kg; conditions: in vivo, po
[9] = AUC(0 to t) in Sprague-Dawley rat at 1 mg/kg, iv measured for 24 hrs by LC-MS/MS analysis; assay type: ADME, organism-based; set-up: time 24 hrs, dose 1 mg/kg; conditions: in vivo
[10] = Bioavailability in Sprague-Dawley rat at 5 mg/kg, ig measured for 24 hrs by LC-MS/MS analysis; assay type: ADME, organism-based; conditions: in vivo, po
[11] = Clearance in Sprague-Dawley rat at 1 mg/kg, iv measured for 24 hrs by LC-MS/MS analysis; assay type: ADME, organism-based; conditions: in vivo
[12] = test system: Rattus norvegicus; assay: Antimigraine activity against electrical stimulation of trigeminal ganglion migraine Wistar rat model assessed as reduction in dural plasma protein extravasation at 0.01 ug/kg, po measured after 45 mins by confocal fluorescence microscopic analysis; assay type: functional, organism-based; conditions: dose 0.01 µg/kg
[13] = test system: Rattus norvegicus; assay: Antimigraine activity against electrical stimulation of trigeminal ganglion migraine Wistar rat model assessed as reduction in c-Fos-positive cells at 10 ug/kg, po measured after 60 mins by confocal fluorescence microscopic analysis; assay type: functional, organism-based; conditions: dose 10.0 µg/kg
[14] = Toxicity in NewZealand rabbit Saphenous vein rings assessed as induction of vasoconstriction at 0.01 to 100 uM; assay type: tissue-based, Oryctolagus cuniculus; conditions: dose 0.01-100 µM
[15] = Toxicity in NewZealand rabbit Saphenous vein rings assessed as induction of vasoconstriction at 1 to 100 uM; assay type: tissue-based, Oryctolagus cuniculus; conditions: dose 1-100 µM

SMILES	AUC(0-t) at 24 h [1] [ng·h/mL]	Vd [2] [L/kg]	half-life [3] [min]	Ratio EC50 [4]	EC50 [5] [nM]	half-life [6] [min]	Cmax [7] [ng/mL]	Cmax [8] [ng/mL]	AUC(0-t) at 24 h [9] [ng·h/mL]	bioavailability [10] [%]	clearance [11] [mL/min/kg]	Activity [12]	Activity [13]	Activity [14]	Activity [15]
CN1CCC(=C(F)c2cccc(NC(=O)c3ccc(F)cc3F)n2)CC1	44.6	17.7	49.4	3	4.67	63	74.4	9.71	70.4	12.9	229				
CN1CCC(=C(F)c2cccc(NC(=O)c3ccc(Cl)cc3)n2)CC1	151	20.3	145	3	29.3	96	61	35.7	89.4	39	180				
O=C(Nc1cccc(C(F)=C2CCN(C3CC3)CC2)n1)c1c(F)cc(F)cc1F					570										
CN1CCC(=C(F)c2cccc(NC(=O)c3ccc(F)cc3)n2)CC1	157	17.3	84.6	3	6.36	82.2	75.3	34.1	104	32.5	156				
CCN1CCC(=C(F)c2cccc(NC(=O)c3c(F)cc(F)cc3F)n2)CC1					178										
CN1CCC(=C(F)c2cccc(NC(=O)c3ccc(Cl)cc3F)n2)CC1	105	20.1	101	3	23.4	85.2	72.2	23.2	90.5	26.2	178				
CN1CCC(=C(F)c2cccc(NC(=O)c3ccc(Cl)cn3)n2)CC1					161										
CN1CCC(C(=O)c2cccc(NC(=O)c3c(F)cc(F)cc3F)n2)CC1 [LASMIDITAN]	386	32.2	203			187	28.1	90.9	105	63.2	127	Active	Active	Non-Toxic	
CN1CCC(=C(F)c2cccc(NC(=O)c3ccc(F)cn3)n2)CC1	121	11	74.4		24.3	55.4	94.9	34.7	103	23.7	159				
CNS(=O)(=O)Cc1ccc2[nH]cc(CCN(C)C)c2c1 [SUMATRIPTAN]															Toxic
O=C(Nc1cccc(C(F)=C2CCN(C(F)F)CC2)n1)c1c(F)cc(F)cc1F					813										
O=C(Nc1cccc(C(F)=C2CCN(C(F)(F)F)CC2)n1)c1c(F)cc(F)cc1F					> 10000										

— ChEMBL document CHEMBL4828744, “Design, synthesis and biological evaluation of pyridinylmethylenepiperidine derivatives as potent 5-HT1F receptor agonists for migraine therapy” (Eur J Med Chem, 2021)
